This passage reports EC50 results from ChEMBL document CHEMBL1201862, “PubChem BioAssay data set” (2004).

SMILES strings stand for the structures. The source made the active and inactive calls. Cut-off read from the data, not from the text of the source: actives have a measured EC50 and inactives only a lower limit.

Assay [1] addresses T1, Heat shock factor protein 1 (Mus musculus, UniProt P38532).
T1 sequence (P38532 whole entry): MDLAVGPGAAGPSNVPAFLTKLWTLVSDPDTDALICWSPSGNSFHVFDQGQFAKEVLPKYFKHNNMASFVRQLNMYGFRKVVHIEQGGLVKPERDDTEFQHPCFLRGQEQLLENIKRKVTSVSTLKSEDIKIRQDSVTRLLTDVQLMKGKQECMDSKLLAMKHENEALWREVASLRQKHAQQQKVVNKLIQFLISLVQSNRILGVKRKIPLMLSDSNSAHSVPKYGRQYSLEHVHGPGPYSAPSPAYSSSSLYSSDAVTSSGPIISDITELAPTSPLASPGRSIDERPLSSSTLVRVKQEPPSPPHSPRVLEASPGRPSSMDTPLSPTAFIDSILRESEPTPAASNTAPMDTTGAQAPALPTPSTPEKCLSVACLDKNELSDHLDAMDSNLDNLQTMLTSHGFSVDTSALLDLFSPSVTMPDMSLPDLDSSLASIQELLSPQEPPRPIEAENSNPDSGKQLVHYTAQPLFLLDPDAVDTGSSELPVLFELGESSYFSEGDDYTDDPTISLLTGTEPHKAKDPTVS
Kind of assay: inhibition of MG132-induced HSE-luciferase signal, confirmation, cell-based, NIH3T3, luminescence, dose retest (AID 2382).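 Note: NIH3T3 fibroblasts with HSF1-driven luciferase reporter stressed by proteasome inhibitor MG132; luminescence from HSF1-driven luciferase expression after 8 hours of MG132 stress.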 It counts as functional.

Assay [2] is described as follows: Luminescence Cell-Based Dose Response HTS to Identify Activators of Luciferase Translation or Activity in H4 […] Cells. [Related pubchem assays: 1829 (Project Summary), 1814 (Primary HTS)]. It counts as functional.
Another assay has as its system H4. Nature of the assay: Luminescence Cell-Based Dose Response HTS to Identify Activators of 5'UTR Stem-Loop Driven Prion Protein mRNA Translation in H4 Neuroglioblastoma Cells. [Related pubchem assays: 1829 (Project Summary), 1814 (Primary HTS)]. It counts as functional. As to conditions: Homo sapiens.
The next assay relates to Streptococcus. Nature of the assay: Group A Streptococcus viability loss, dose response, counter-screen for streptokinase expression inhibitor project, luminescence, BacTiterGlo (AID 1915).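 Note: potency for reduction of bacterial viability or growth.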 It counts as functional, organism-based. For orientation: Counterscreens check selectivity or assay interference.
For assay [3], the system named is Streptococcus sp. 'group A'. Kind of assay: growth inhibition of control SK(-) GAS strain, dose response, counter-screen for streptokinase expression inhibitor project, luminescence, kanamycin, BacTiterGlo, confirmation (AID 1900). It counts as functional, organism-based.
Another assay concerns the target T2, Streptokinase A (Streptococcus pyogenes serotype M1, UniProt P10520).
T2 sequence (P10520 whole entry): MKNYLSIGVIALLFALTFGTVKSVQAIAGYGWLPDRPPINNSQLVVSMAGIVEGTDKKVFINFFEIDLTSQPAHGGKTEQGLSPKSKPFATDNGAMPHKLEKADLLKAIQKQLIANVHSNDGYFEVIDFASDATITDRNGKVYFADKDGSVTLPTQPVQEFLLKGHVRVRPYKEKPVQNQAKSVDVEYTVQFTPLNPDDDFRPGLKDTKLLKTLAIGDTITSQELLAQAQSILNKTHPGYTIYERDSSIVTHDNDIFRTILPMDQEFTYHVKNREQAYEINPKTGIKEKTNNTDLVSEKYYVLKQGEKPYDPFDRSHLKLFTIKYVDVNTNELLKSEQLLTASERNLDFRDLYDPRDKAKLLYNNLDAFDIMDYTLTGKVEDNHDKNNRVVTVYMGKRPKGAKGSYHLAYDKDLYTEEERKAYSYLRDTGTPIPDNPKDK
Kind of assay: S. pyogenes streptokinase expression inhibitors, potency, dose response, plasminogen activation absorbance, OD405 (AID 1914).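 Note: secreted streptokinase activity via plasminogen activation per viability signal from cell pellet.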 It counts as functional, Streptococcus pyogenes M1 GAS.

`O=[N+]([O-])c1ccccc1CCc1cnc(Cl)s1`: in assay [1], the EC50 is > 195 µM (not active).

For the compound `CN1CCN(CC(=O)Nc2nnc(-c3cccs3)s2)CC1`, the EC50 in assay [1] is listed as > 195 µM (not active).

Turning to `Cc1ccc(-c2ccc(=O)n(CCC(=O)NCCN3CCCCC3C)n2)cc1` (stereo unspecified), the EC50 in assay [1] is recorded as > 195 µM (not active).

On to `CC1CC1C(=O)OCc1cc(=O)n2cc(Br)ccc2n1` (stereo unspecified), for which the EC50 is 0.102 µM (active) in assay [2] and > 120 µM (not active) in the assay on H4.

Consider `CCOC(=O)Cn1c(CCC(=O)O)ccc1-c1ccc(F)cc1`, for which the EC50 in assay [1] was > 195 µM (not active).

Consider `N#Cc1ccsc1NC(=O)COC(=O)c1ccc2ccccc2c1`, for which, in the assay with H4, the concentration for a half-maximal effect (EC50) was 17.5 µM (active).

`N=C(NOC(=O)c1cccc(F)c1)c1ccccc1`: the EC50 in assay [2] is > 120 µM (not active).

`Cc1ccc(N2C(=O)c3ccccc3C2Nc2ccccc2F)nc1` (stereo unspecified): the EC50 in assay [1] is reported as > 195 µM (not active).

For `CC(C)(C)C(=O)N1CCN(CCN2C(=O)c3cccc4cccc(c34)C2=O)CC1`, the EC50 in assay [1] is > 195 µM (not active).

With `COc1ccc(NC(=O)CN(C)C(=O)/C=C/c2cn(-c3ccccc3)nc2-c2ccc(F)cc2)cc1`, the results for the EC50 (in the assay on Streptococcus; in assay [3]; at Streptokinase A) were 68.1 µM (active), 26.5 µM (active) and 53.8 µM (inconclusive), respectively.

In the case of `Cc1oc(-c2cc(Cl)cc(Cl)c2)cc1C(=O)NCCc1ccccc1`, the EC50 is 48.3 µM (active) in the assay on Streptococcus, 17.3 µM (active) in assay [3] and 2.57 µM (active) at Streptokinase A.

For `COc1ccc(S(=O)(=O)NCC2CCCN(Cc3ccc(C)o3)C2)cc1` (stereo unspecified), the EC50 in assay [1] is given as > 195 µM (not active).

In the case of `CC(C)CN(C(=O)CCCSc1nc2ccccc2[nH]1)c1c(N)n(Cc2ccccc2)c(=O)[nH]c1=O`, in assay [1], the 50% effective concentration (EC50) is > 195 µM (not active).

As for `O=C(NC(=S)N1CCCCC1c1cccnc1)c1ccc(F)cc1` (stereo unspecified), the concentration giving a half-maximal response (EC50) (in the assay with Streptococcus; in assay [3]; on Streptokinase A) was > 150 µM (not active) throughout.

For `CC(Oc1ccccc1)C(=O)NC1=NCCS1` (stereo unspecified), the EC50 in assay [2] is 94.2 µM (active); with H4, 18.9 µM (active).

`CCOc1ccccc1C(=O)Nc1ccc(NC(=O)c2ccccc2)cc1`: the 50% effective concentration (EC50) in assay [1] was > 195 µM (not active).

With `COc1ccc2c(c1OC)C(=O)OC2Nc1ccc(S(=O)(=O)N=C(N)N)cc1` (stereo unspecified), the EC50 in assay [1] was > 195 µM (not active).

For the compound `Cc1ccc(NC(=O)CN2C(=O)NC3(CCCC3)C2=O)c(Cl)c1`, the EC50 in assay [1] is > 195 µM (not active).

`CC(=O)N/N=C(\C)CC(=O)NC(C)(C)C`: the EC50 in assay [1] is > 195 µM (not active).

`CC(C)c1ccc(/C=N/n2c(S)nnc2-c2ccccc2)cc1`: the EC50 with Streptococcus is > 150 µM (not active); in assay [3], 18.3 µM (active); at Streptokinase A it was > 150 µM (not active).

As to `COc1ccc2c(c1)CC/C2=N\OC(=O)c1cccc(C)c1`, the half-maximal effective concentration (EC50) in assay [2] was 0.105 µM (active).

The term EC50 denotes the concentration at which the effect is half-maximal.
